Measured values taken from article PMC4766415 (Nature Communications, 2016).

How the values were obtained:
Y78F-TTR = Y78F-TTR (Homo sapiens, UniProt P02766, Y98F); assay: Y78F-TTR aggregation inhibition, turbidity at 340 nm, pH 4.2
A25T-TTR [1] = assay: A25T-TTR aggregation inhibition, turbidity, pH 5.0; settings: four molar equivalents (15 μM); A25T-TTR 3.6 μM; pH 5.0, 37 °C, 22 h
[2] = Tolcapone quantification in human plasma after oral administration (UPLC-MS/MS); format: in vivo; settings: 200 mg
Procedure: (§1) TTR stabilization in vivo was measured using an immunoturbidimetric assay as in Fig. 4c. The fraction of initial tetramer concentration (FOI) was determined in triplicate for each sample (FOI=TTR tetramer after 48 h urea treatment/TTR tetramer at time 0 in the presence of urea).
Blood was collected 30 min before administration and 2 h after the dose in BD Vacutainer tubes with Lithium-Heparin and gel for plasma separation, following the manufacturer's instructions. Briefly, after gently mixing the tubes by inversion, blood was centrifuged at 1,300g for 10 min at 20 °C. Supernatants were collected and immediately stored at −80 °C until analysis.
Extracted samples were analysed on a Waters Acquity UPLC coupled with a Waters Xevo TQ MS triple quadrupole mass spectrometer. Chromatographic separation was achieved on an Acquity HSS C18 column using a gradient elution with the mobile phase of methanol and 0.1% formic acid in water.

V122I-TTR = V122I-TTR (Homo sapiens, UniProt P02766, V142I); assay: Isothermal titration calorimetry, V122I-TTR
AC16 cells = assay: TTR-induced cytotoxicity in AC16 cells, resazurin reduction assay; format: cell-based, human; settings: 16 μM compound, 8 μM TTR; 24 h
Source text: Error bars indicate s.e.m. […] Error bars indicate s.e.m. (n=4). […] Error bars indicate s.e.m. (n=3).

A25T-TTR [3] = system: T1, A25T-TTR; assay: A25T-TTR sedimentation assay (total protein precipitation); format: biochemical, human; settings: four molar equivalents (15 μM); pH 5.0, 37 °C, 22 h
T1 construct: TTR is composed of four identical 127 amino-acid residue β-sheet-rich subunits; made in house; host or cells: Escherichia coli BL21(DE3), pET expression system
Procedure: TTR aggregation can also be measured by sedimentation using centrifugation. […] TTR aggregation induction was performed as described above. […] The supernatant was carefully removed, and 400 μl of Guanidine (8 M) was added to each sample and subsequently incubated for 1 h to unfold the aggregated TTR. The amount of resolubilized TTR was measured by absorbance at 280 nm. The percentage of TTR precipitated was calculated with respect to total (soluble) TTR at time 0. […]
aggregation as measured by total protein precipitation. […]
aggregation conditions (pH 4.4 and 37°C) for 72 hours. The samples were then centrifuged at 20,000 x g for 1 h at 4 °C and the supernatants (soluble protein) were carefully removed. The precipitated TTR from each sample was resolubilized by addition of 8 M guanidine solution followed by 1 h incubation at RT. TTR concentration was measured by spectroscopy at 280 nm and total amount of resolubilized TTR was calculated. The data is presented as % insoluble […]
was performed for A25T-TTR at pH 5.0 and 37°C for 22 hours . […]

[4] = system: WT and V30M-TTR tetramers in plasma; assay: TTR tetramer stability in human plasma by IEF under semi-denaturing conditions; format: biochemical; settings: 1.4 mM, overnight 4 °C, 4 M urea
TTR tetramer = system: T2, TTR tetramer; assay: TTR stabilization after oral administration in humans (immunoturbidity, urea); format: in vivo, human; settings: for FOI (TTR tetramer after 48 h urea/TTR tetramer at time 0): 4.8 M urea
T2 construct: Plasma TTR was then immunoprecipitated; from tissue; host or cells: human plasma
Procedure: as §1
For TTR stabilization analysis, frozen plasma samples were thawed on ice. Samples were then mixed with a 8 M urea solution (in 40 mM sodium phosphate pH 7.4 and 80 mM KCl) to a final urea concentration of 4.8 M. One aliquot was taken immediately after adding urea (time 0) and the rest were incubated for 48 h at controlled RT conditions. After the incubation time points (0 or 48 h), TTR was crosslinked with 40 mM glutaraldehyde (2.5 M stock solution). The samples were quickly vortexed and incubated for 4 min at RT. Then, NaBH4 was added to a final concentration of 48 mM to quench the reaction. Samples were transferred to a measuring tube and read by immunoturbidity after 5 min at RT. Immunoturbidity was measured in a Beckman Coulter AU680 ISE instrument (Beckman Coulter), using the Olympus OSR6175 reagent and calibrator ODR3029 (Olympus) according to the manufacturer's instructions. Analysis was performed in triplicates. Informed consent was obtained from all subjects and the protocol was approved by the Ethics Committee of Hospital Vall d'Hebron (Barcelona).

L55P-TTR = system: T3, L55P-TTR; assay: Dot-blot filter assay of L55P-TTR aggregation secreted by RN22 cells; format: cell-based, human; settings: 1 μM in the medium
T3 construct: TTR is composed of four identical 127 amino-acid residue β-sheet-rich subunits; expressed in transfected cells; host or cells: rat Schwannoma RN22 cells, metallothionein promoter, ZnSO4 induction
Procedure: The extent of extracellular L55P-TTR aggregation was monitored by a filter trap assay followed by TTR immunodetection.
The rat Schwannoma cell line RN22 stably co-transfected with TTR L55P cDNA under the control of the metallothionein promoter was used to test the inhibitors of TTR aggregation as in ref. [51]. […] TTR in the medium was quantified by ELISA, and the volume of medium corresponding to 500 ng of TTR was applied on to a 0.2-μm pore cellulose acetate membrane filter (Schleicher and Schuell) using a manifold system (Gibco BRL) to separate soluble proteins from aggregates. […] Detection was performed with ECL (GE Healthcare). Dot blot quantification was performed using the ImageQuant program. The percentage of aggregation inhibition was calculated as 100 × ((Control—Treated)/Control). Experiments were repeated three times in triplicate.

[5] = two identical and independent binding sites

Cc1ccc(C(=O)c2cc(O)c(O)c([N+](=O)[O-])c2)cc1 [tolcapone]
RA (%): percent reduction of TTR aggregation rate at high inhibitor concentration (Y78F-TTR): 89.13% | reduction of A25T-TTR aggregation (turbidity, Fig. 1d) (A25T-TTR [1]): 40% | concentration at 2 h [2]: 13.6 µM | TΔs binding entropy (V122I-TTR; called unfavourable): 1.6 kcal/mol | Δh binding enthalpy per site (V122I-TTR; [5]): -11.5 kcal/mol | β1 association constant (V122I-TTR; [5]): 1.8e+07 M⁻¹ | effect on WT-TTR and V122I-TTR induced reduction in cell viability (AC16 cells): rescued this toxic effect | reduction of A25T-TTR aggregation (sedimentation, Supplementary Fig. 1b) (A25T-TTR [3]): 50% | TTR tetramer stabilization in plasma [4]: stabilized WT and V30M-TTR tetramers in plasma | FOI (TTR tetramer after 48 h urea/TTR tetramer at time 0) (TTR tetramer; HV1, 200 mg oral, plasma 2 h after dose): 0.78±0.04 | FOI (TTR tetramer after 48 h urea/TTR tetramer at time 0) (TTR tetramer; HV2, 2 × 200 mg oral, plasma 2 h after last dose): 0.98±0.02 | TTR stabilization (TTR tetramer; single dose of 200 mg, plasma 13.6 μM at Tmax): 359% | reduction of L55P-TTR aggregation compared with untreated cells (L55P-TTR): ~90%
